{
  "source": "paper PMC10392026",
  "about": "“Vacuolar Phosphate Transporter1 (VPT1) may transport sugar in response to soluble sugar status of grape fruits” (Horticulture Research, 2022)",
  "type_in_all_cases": "cell-based",
  "key": {"[1]": {"target": "T1, AtVPT1 (Arabidopsis thaliana, UniProt F4I0G7)", "T1 construct": "gene VPT1; full-length CDS (708 residues implied by AtVPT1_162-708) in pRS426, expressed in yeast Pi uptake mutant YP101", "T1 sequence (F4I0G7 1-708)": "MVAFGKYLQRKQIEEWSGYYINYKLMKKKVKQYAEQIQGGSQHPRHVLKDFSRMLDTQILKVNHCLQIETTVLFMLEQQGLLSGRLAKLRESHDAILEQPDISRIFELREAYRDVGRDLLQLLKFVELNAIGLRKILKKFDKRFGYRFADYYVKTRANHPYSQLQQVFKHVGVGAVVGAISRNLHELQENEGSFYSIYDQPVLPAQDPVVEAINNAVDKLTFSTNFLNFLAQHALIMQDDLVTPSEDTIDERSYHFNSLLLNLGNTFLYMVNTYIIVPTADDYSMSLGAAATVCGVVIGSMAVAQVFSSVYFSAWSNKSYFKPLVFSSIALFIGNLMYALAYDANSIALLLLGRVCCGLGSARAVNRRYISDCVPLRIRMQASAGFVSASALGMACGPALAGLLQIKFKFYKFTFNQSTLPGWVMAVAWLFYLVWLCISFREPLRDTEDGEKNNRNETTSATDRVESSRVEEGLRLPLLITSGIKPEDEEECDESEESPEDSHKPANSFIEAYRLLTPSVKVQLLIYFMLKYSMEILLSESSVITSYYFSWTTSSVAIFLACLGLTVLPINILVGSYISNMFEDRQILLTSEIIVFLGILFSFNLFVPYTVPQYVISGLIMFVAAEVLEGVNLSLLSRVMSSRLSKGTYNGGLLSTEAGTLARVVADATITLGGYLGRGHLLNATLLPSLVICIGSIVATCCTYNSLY", "conditions": "1-20 mM Pi, 30 °C, 5 d; indirect growth read-out"}, "[2]": {"target": "T2, VvVPT1 (Vitis vinifera, UniProt D7TW83)", "T2 construct": "gene VIT_02s0025g04540; full-length CDS (698 residues implied by VvVPT1_155-698) in pDR195, expressed in yeast hexose transport mutant EBY.VW4000", "T2 sequence (D7TW83 entry or part of it)": "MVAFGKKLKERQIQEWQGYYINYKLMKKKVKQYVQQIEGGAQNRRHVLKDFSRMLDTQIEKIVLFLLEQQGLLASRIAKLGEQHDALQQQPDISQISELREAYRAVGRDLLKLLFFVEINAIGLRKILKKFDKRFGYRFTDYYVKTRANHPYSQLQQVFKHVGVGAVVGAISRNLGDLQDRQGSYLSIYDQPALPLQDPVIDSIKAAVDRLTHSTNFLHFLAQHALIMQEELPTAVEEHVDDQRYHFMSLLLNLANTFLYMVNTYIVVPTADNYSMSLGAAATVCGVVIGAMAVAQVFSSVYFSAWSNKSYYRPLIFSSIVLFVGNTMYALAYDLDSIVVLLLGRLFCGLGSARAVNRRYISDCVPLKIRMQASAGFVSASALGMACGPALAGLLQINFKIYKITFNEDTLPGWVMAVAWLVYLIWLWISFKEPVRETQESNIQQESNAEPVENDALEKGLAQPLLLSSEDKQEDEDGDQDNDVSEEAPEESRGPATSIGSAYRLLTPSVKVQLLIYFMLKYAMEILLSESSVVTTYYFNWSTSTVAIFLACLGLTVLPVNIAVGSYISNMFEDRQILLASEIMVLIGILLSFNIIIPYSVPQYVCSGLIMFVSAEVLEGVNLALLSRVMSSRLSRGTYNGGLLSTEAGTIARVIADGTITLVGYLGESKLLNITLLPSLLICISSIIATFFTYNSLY", "assay": "fluorescent uptake in yeast, confocal microscopy", "conditions": "60 uM 2-NBDG, 30 °C, 3 h; EBY.VW4000 yeast"}, "[3]": {"target": "T3, FaVPT1 (Fragaria x ananassa, UniProt Z9SEB9UZJ4)", "T3 construct": "full-length CDS (696 residues implied by FaVPT1_147-696) in pDR195, expressed in yeast sucrose transport mutant SUSY7/ura3", "T3 sequence (Z9SEB9UZJ4 1-696)": "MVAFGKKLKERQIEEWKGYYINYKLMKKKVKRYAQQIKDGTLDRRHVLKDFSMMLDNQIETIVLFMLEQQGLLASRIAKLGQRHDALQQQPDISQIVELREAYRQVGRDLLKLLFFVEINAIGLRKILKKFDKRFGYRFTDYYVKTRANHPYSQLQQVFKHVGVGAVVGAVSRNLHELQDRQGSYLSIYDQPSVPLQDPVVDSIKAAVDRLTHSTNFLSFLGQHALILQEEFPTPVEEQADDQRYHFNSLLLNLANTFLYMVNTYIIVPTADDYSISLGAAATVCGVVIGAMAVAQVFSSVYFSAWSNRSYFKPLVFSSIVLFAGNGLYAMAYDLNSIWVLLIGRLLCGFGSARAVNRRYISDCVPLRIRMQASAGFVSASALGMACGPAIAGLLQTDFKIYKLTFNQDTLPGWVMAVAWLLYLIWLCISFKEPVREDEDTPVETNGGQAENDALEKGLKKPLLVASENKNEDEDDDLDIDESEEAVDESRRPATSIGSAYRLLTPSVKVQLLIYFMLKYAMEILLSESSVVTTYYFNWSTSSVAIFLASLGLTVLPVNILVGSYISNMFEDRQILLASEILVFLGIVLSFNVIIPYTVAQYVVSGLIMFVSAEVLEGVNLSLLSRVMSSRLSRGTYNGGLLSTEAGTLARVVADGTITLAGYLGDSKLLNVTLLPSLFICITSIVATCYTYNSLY", "assay": "fluorescent uptake in yeast, confocal microscopy", "conditions": "[…] esculin, […] Na2HPO4 pH […] °C, […] h; SUSY7/ura3 yeast"}, "[4]": {"target": "T3, FaVPT1", "assay": "yeast growth complementation (SUSY7/ura3)", "conditions": "[…] (w/v) Suc as sole carbon source, […] °C; indirect growth read-out"}},
  "data": [
    {"smiles": "O=P(O)(O)O", "note": "[Pi]", "values": [
      {"measurement": "yeast growth complementation (YP101)", "setting": "[1]", "value": "The yeast mutant transformed with FaVPT1, VvVPT1, or AtVPT1 restored growth"}
    ]},
    {"smiles": "O=[N+]([O-])c1ccc(N[C@H]2C(O)O[C@H](CO)[C@@H](O)[C@@H]2O)c2nonc12", "note": "(stereo partly drawn) [2-NBDG, 2-[N-(7-nitrobenz-2-oxa-1,3-diazol-4-yl)amino]-2-deoxy-d-Glc]", "values": [
      {"measurement": "fluorescent uptake in yeast, confocal microscopy", "setting": "[2]", "value": "The fluorescence in VvVPT1-expressed yeast strain was stronger than that of the WT"}
    ]},
    {"smiles": "O=c1ccc2cc(O[C@@H]3O[C@H](CO)[C@@H](O)[C@H](O)[C@H]3O)c(O)cc2o1", "note": "[esculin]", "values": [
      {"measurement": "fluorescent uptake in yeast, confocal microscopy", "setting": "[3]", "value": "the FaVPT1-expressed yeast strain could take up both esculin and sucrose"}
    ]},
    {"smiles": "OC[C@H]1O[C@@](CO)(O[C@H]2O[C@H](CO)[C@@H](O)[C@H](O)[C@H]2O)[C@@H](O)[C@@H]1O", "note": "[Suc]", "values": [
      {"measurement": "yeast growth complementation (SUSY7/ura3)", "setting": "[4]", "value": "only FaVPT1 has sucrose transport capacity"}
    ]}
  ]
}
